Experimental data: ChEMBL document CHEMBL1681780, “A rational approach for the design and synthesis of 1-acetyl-3,5-diaryl-4,5-dihydro(1H)pyrazoles as a new class of potential non-purine xanthine oxidase inhibitors” (Bioorg Med Chem, 2011)

These molecules were tested against Xanthine dehydrogenase/oxidase (Bos taurus, UniProt P80457) (assay: Inhibition of bovine Xanthine oxidase assessed as decrease in uric acid production preincubated […] for 5 mins by spectrophotometry).
Sequence of Xanthine dehydrogenase/oxidase (P80457 whole entry): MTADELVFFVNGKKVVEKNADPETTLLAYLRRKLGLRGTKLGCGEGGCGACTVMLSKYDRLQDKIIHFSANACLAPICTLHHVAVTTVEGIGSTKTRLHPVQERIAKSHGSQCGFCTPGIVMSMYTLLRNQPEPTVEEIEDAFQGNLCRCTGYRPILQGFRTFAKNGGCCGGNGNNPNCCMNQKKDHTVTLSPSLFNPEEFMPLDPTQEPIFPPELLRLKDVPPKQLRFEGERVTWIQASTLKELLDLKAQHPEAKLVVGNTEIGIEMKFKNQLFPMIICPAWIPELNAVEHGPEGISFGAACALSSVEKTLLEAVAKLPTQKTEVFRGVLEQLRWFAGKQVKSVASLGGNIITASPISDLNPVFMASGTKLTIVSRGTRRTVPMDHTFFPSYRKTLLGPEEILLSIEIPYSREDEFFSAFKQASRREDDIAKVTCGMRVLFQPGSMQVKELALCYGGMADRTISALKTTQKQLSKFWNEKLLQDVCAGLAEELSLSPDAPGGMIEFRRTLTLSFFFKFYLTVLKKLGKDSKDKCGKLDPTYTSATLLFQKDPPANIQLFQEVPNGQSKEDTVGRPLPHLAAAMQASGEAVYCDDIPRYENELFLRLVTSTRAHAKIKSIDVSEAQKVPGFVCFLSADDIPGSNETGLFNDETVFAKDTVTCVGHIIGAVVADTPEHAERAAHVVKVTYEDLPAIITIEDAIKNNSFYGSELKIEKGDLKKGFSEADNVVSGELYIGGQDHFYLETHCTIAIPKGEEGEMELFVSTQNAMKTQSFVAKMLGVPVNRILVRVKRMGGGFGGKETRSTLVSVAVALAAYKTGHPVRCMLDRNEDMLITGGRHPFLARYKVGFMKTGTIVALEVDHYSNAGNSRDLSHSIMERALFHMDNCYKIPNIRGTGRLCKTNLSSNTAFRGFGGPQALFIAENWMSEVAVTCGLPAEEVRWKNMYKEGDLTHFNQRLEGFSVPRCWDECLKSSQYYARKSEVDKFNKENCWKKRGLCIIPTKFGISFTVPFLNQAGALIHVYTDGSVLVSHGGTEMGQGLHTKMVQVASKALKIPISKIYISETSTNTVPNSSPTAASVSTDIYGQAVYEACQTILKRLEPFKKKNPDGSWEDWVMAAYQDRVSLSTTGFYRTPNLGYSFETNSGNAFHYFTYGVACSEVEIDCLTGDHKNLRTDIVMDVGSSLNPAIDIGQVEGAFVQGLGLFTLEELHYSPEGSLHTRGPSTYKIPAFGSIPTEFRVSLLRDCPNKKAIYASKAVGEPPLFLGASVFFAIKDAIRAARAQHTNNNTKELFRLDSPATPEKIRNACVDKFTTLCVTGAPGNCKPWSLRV

Row | Structure (SMILES) | IC50
1 | CC(=O)N1N=C(c2cccc3ccccc23)CC1c1cccc(Br)c1 (stereo not drawn) | 38.7 µM
2 | COc1ccc(C2CC(c3cccc([N+](=O)[O-])c3)=NN2C(C)=O)cc1OC (stereo not drawn) | 75.2 µM
3 | COc1cc(C2CC(c3ccccc3)=NN2C(C)=O)ccc1O (stereo not drawn) | 81.2 µM
4 | CC(=O)N1N=C(c2ccco2)CC1c1ccncc1 (stereo not drawn) | 5.3 µM
5 | CC(=O)N1N=C(c2cccc3ccccc23)CC1c1ccccc1[N+](=O)[O-] (stereo not drawn) | 37.2 µM
6 | CC(=O)N1N=C(c2cccc3ccccc23)CC1c1ccc2ccccc2c1 (stereo not drawn) | > 100 µM
7 | CC(=O)N1N=C(c2cccc3ccccc23)CC1c1cccc(Cl)c1Cl (stereo not drawn) | 34.2 µM
8 | COc1ccc(C2CC(c3ccccc3)=NN2C(C)=O)cc1OC (stereo not drawn) | 83.7 µM
9 | COc1cc(C2CC(c3cccc4ccccc34)=NN2C(C)=O)cc(OC)c1OC (stereo not drawn) | 49.5 µM
10 | CC(=O)N1N=C(c2ccco2)CC1c1ccc(C)cc1 (stereo not drawn) | 19.2 µM
11 | CC(=O)N1N=C(c2cccc3ccccc23)CC1c1cccc([N+](=O)[O-])c1 (stereo not drawn) | 36.4 µM
12 | COc1cc(C2CC(c3ccc(Br)cc3)=NN2C(C)=O)cc(OC)c1OC (stereo not drawn) | 74.9 µM
13 | CC(=O)N1N=C(c2ccco2)CC1c1ccc(Cl)cc1 (stereo not drawn) | 15.2 µM
14 | CC(=O)N1N=C(c2ccccc2)CC1c1ccc(N(C)C)cc1 (stereo not drawn) | 73.6 µM
15 | CC(=O)N1N=C(c2ccco2)CC1c1ccccc1[N+](=O)[O-] (stereo not drawn) | 14.2 µM
16 | COc1ccc(OC)c(C2CC(c3ccco3)=NN2C(C)=O)c1 (stereo not drawn) | 27.3 µM
17 | CC(=O)N1N=C(c2cccc([N+](=O)[O-])c2)CC1c1ccccc1 (stereo not drawn) | 79.1 µM
18 | COc1cc(C2CC(c3cccc4ccccc34)=NN2C(C)=O)ccc1O (stereo not drawn) | 45.7 µM
19 | COc1ccc(C2CC(c3ccc(Br)cc3)=NN2C(C)=O)cc1OC (stereo not drawn) | 64.1 µM
20 | CC(=O)N1N=C(c2ccco2)CC1c1cccc(O)c1 (stereo not drawn) | 27.2 µM
21 | CC(=O)N1N=C(c2ccco2)CC1c1ccc2ccccc2c1 (stereo not drawn) | 91.4 µM
22 | c1ccc(C2=NNC(c3ccccc3)C2)cc1 (stereo not drawn) | > 100 µM
23 | COc1cc(C2CC(c3ccccc3)=NN2C(C)=O)cc(OC)c1OC (stereo not drawn) | 86.4 µM
24 | CC(=O)N1N=C(c2cccc([N+](=O)[O-])c2)CC1c1cccc(Cl)c1Cl (stereo not drawn) | 58 µM
25 | COc1ccc(C2CC(c3cccc([N+](=O)[O-])c3)=NN2C(C)=O)cc1 (stereo not drawn) | 73.3 µM
26 | COc1cc(C2CC(c3ccco3)=NN2C(C)=O)cc(OC)c1OC (stereo not drawn) | 28.7 µM
27 | COc1cc(C2CC(c3ccco3)=NN2C(C)=O)ccc1O (stereo not drawn) | 26.8 µM

Row | Structure (SMILES) | IC50
28 | CC(=O)N1N=C(c2ccco2)CC1c1ccc2c(c1)OCO2 (stereo not drawn) | 28.1 µM
29 | COc1ccc(C2CC(c3cccc4ccccc34)=NN2C(C)=O)cc1 (stereo not drawn) | 43.5 µM
30 | CC(=O)N1N=C(c2ccc(Br)cc2)CC1c1ccccc1 (stereo not drawn) | 71.3 µM
31 | COc1ccc(C2CC(c3ccco3)=NN2C(C)=O)cc1 (stereo not drawn) | 21.3 µM
32 | CC(=O)N1N=C(c2cccc3ccccc23)CC1c1ccc2c(c1)OCO2 (stereo not drawn) | 47 µM
33 | CC(=O)N1N=C(c2ccco2)CC1c1ccc([N+](=O)[O-])cc1 (stereo not drawn) | 12.4 µM
34 | CC(=O)N1N=C(c2ccco2)CC1c1ccc(N(C)C)cc1 (stereo not drawn) | 23 µM
35 | COc1ccc(C2CC(c3ccc(Br)cc3)=NN2C(C)=O)cc1 (stereo not drawn) | 66.5 µM
36 | COc1cc(OC)c(C2CC(c3cccc4ccccc34)=NN2C(C)=O)cc1OC (stereo not drawn) | 46.2 µM
37 | CC(=O)N1N=C(c2ccco2)CC1c1cccc(Cl)c1Cl (stereo not drawn) | 14.8 µM
38 | CC(=O)N1N=C(c2ccccc2)CC1c1cccc(Cl)c1Cl (stereo not drawn) | 55.1 µM
39 | CC(=O)N1N=C(c2ccco2)CC1c1ccccc1 (stereo not drawn) | 26.4 µM
40 | CC(=O)N1N=C(c2ccccc2)CC1c1ccc2c(c1)OCO2 (stereo not drawn) | 70.8 µM
41 | CC(=O)N1N=C(c2cccc([N+](=O)[O-])c2)CC1c1ccc2c(c1)OCO2 (stereo not drawn) | 76.1 µM
42 | CC(=O)N1N=C(c2ccco2)CC1c1cccc([N+](=O)[O-])c1 (stereo not drawn) | 13.1 µM
43 | CC(=O)N1N=C(c2cccc3ccccc23)CC1c1ccccc1 (stereo not drawn) | 41.3 µM
44 | CC(=O)N1N=C(c2cccc3ccccc23)CC1c1ccc([N+](=O)[O-])cc1 (stereo not drawn) | 32.2 µM
45 | COc1ccc(C2CC(c3ccccc3)=NN2C(C)=O)cc1 (stereo not drawn) | 76.2 µM
46 | CC(=O)N1N=C(c2ccccc2)CC1c1ccccc1 (stereo not drawn) | 61.4 µM
47 | COc1ccc(OC)c(C2CC(c3cccc4ccccc34)=NN2C(C)=O)c1 (stereo not drawn) | 44.8 µM
48 | CC(=O)N1N=C(c2ccco2)CC1c1ccc(Br)cc1 (stereo not drawn) | 17.6 µM
49 | CC(=O)N1N=C(c2ccc(Br)cc2)CC1c1cccc(Cl)c1Cl (stereo not drawn) | 51.7 µM
50 | COc1ccc(C2CC(c3ccco3)=NN2C(C)=O)cc1OC (stereo not drawn) | 29.4 µM
51 | COc1ccc(C2CC(c3cccc4ccccc34)=NN2C(C)=O)cc1OC (stereo not drawn) | 45.6 µM
52 | CC(=O)N1N=C(c2ccc(Br)cc2)CC1c1ccc2c(c1)OCO2 (stereo not drawn) | 66.3 µM
53 | COc1cc(OC)c(C2CC(c3ccco3)=NN2C(C)=O)cc1OC (stereo not drawn) | 30.2 µM
